# Source: patent US9695155B2, “Herbicidal substituted pyrimidinyloxy benzene compounds” (E. I. DU PONT DE NEMOURS AND COMPANY, priority 2013, dated 2017)
# Legend:
# giant foxtail = experiment: Test C preemergence; type: in vivo, Setaria faberii; conditions: for Foxtail, Giant plant response rating: preemergence
# Summary of the method: (§1)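 Whole-plant greenhouse test with surfactant-containing solvent formulation, applied preemergence to sown loam–sand pots or postemergence to 2–18 cm plants. Scored by eye 13 to 15 days on, 0–100 scale.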
# Italian ryegrass [1] = experiment: Test C preemergence; type: in vivo, Lolium multiflorum; conditions: for Ryegrass, Italian plant response rating: preemergence
# Summary of the method: as §1
# kochia = experiment: Test A postemergence; type: in vivo, Kochia scoparia
# Summary of the method: (§2)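 Compounds in non-phytotoxic solvent with surfactant applied as soil spray preemergence, or postemergence to plants 2-10 cm at one- to two-leaf stage, in loam/sand. After approximately 10 days in greenhouse, injury rated visually versus untreated controls, 0 (no effect) to 100 (complete control).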
# waterhemp = experiment: Test C preemergence; type: in vivo, Amaranthus rudis; conditions: for Waterhemp plant response rating: preemergence
# Summary of the method: as §1
# johnsongrass = experiment: Test C preemergence; type: in vivo, Sorghum halepense; conditions: for Johnsongrass plant response rating: preemergence
# Summary of the method: as §1
# ragweed = experiment: Test A postemergence; type: in vivo, Ambrosia elatior
# Summary of the method: as §2
# large (Lg) crabgrass = experiment: Test C preemergence; type: in vivo, Digitaria sanguinalis; conditions: for Crabgrass, Large plant response rating: preemergence
# Summary of the method: as §1
# morningglory = experiment: Test C preemergence; type: in vivo, Ipomoea coccinea; conditions: for Morningglory plant response rating: preemergence
# Summary of the method: as §1
# lambsquarters = experiment: Test C preemergence; type: in vivo, Chenopodium album; conditions: for Lambsquarters plant response rating: preemergence
# Summary of the method: as §1
# blackgrass [2] = experiment: Test A postemergence; type: in vivo, Alopecurus myosuroides
# Summary of the method: as §2
# yellow nutsedge = experiment: Test C preemergence; type: in vivo, Cyperus esculentus; conditions: for Nutsedge, Yellow plant response rating: preemergence
# Summary of the method: as §1
# oilseed rape = experiment: Test C preemergence; type: in vivo, Brassica napus; conditions: for Oilseed Rape plant response rating: preemergence
# Summary of the method: as §1
# blackgrass [3] = experiment: Test C preemergence; type: in vivo, Alopecurus myosuroides; conditions: for Blackgrass plant response rating: preemergence
# Summary of the method: as §1
# barnyardgrass = experiment: Test C preemergence; type: in vivo, Echinochloa crus-galli; conditions: for Barnyardgrass plant response rating: preemergence
# Summary of the method: as §1
# soybean = experiment: Test C preemergence; type: in vivo, Glycine max; conditions: for Soybean plant response rating: preemergence
# Summary of the method: as §1
# Italian ryegrass [4] = experiment: Test A postemergence; type: in vivo, Lolium multiflorum
# Summary of the method: as §2
# pigweed = experiment: Test C preemergence; type: in vivo, Amaranthus retroflexus; conditions: for Pigweed plant response rating: preemergence
# Summary of the method: as §1
# velvetleaf = experiment: Test C preemergence; type: in vivo, Abutilon theophrasti; conditions: for Velvetleaf plant response rating: preemergence
# Summary of the method: as §1
# galium = experiment: Test A postemergence; type: in vivo, Galium aparine
# Summary of the method: as §2
# [5] = 16 g ai/ha, scale 0 to 100 (0 no effect, 100 complete control)
# [6] = 125 g ai/ha, scale 0 (no effect) to 100 (complete control)
# [7] = Preemergence, 62 g ai/ha, scale 0 to 100, 0 no effect, 100 complete control
# [8] = 125 g ai/ha, 0 to 100 scale, 0 no effect, 100 complete control
# [9] = 500 g ai/ha, 0 to 100 scale where 0 is no effect and 100 is complete control
structure (smiles),measurement,setting,value
N#Cc1cnn(-c2c(Oc3ncc(F)cn3)cccc2C(F)F)c1 [Compound 240],"Foxtail, Giant plant response rating",giant foxtail; [5],10
same,"Foxtail, Giant plant response rating",giant foxtail; [6],100
same,"Plant response rating, Foxtail, Giant",giant foxtail; [7],100
same,"Ryegrass, Italian plant response rating",Italian ryegrass [1]; [5],0
same,"Ryegrass, Italian plant response rating",Italian ryegrass [1]; [6],50
same,"Plant response rating, Ryegrass, Italian",Italian ryegrass [1]; [7],0
same,"Plant response rating, Kochia",kochia; [8],100
same,"Plant response rating, Kochia",kochia; [9],60
same,Waterhemp plant response rating,waterhemp; [5],50
same,Waterhemp plant response rating,waterhemp; [6],100
same,"Plant response rating, Waterhemp",waterhemp; [7],100
same,Johnsongrass plant response rating,johnsongrass; [5],5
same,Johnsongrass plant response rating,johnsongrass; [6],45
same,"Plant response rating, Johnsongrass",johnsongrass; [7],10
same,"Plant response rating, Ragweed",ragweed; [8],100
same,"Plant response rating, Ragweed",ragweed; [9],100
same,"Crabgrass, Large plant response rating",large (Lg) crabgrass; [5],75
same,"Crabgrass, Large plant response rating",large (Lg) crabgrass; [6],100
same,"Plant response rating, Crabgrass, Large",large (Lg) crabgrass; [7],100
same,Morningglory plant response rating,morningglory; [5],15
same,Morningglory plant response rating,morningglory; [6],75
same,"Plant response rating, Morningglory",morningglory; [7],75
same,Lambsquarters plant response rating,lambsquarters; [5],70
same,Lambsquarters plant response rating,lambsquarters; [6],100
same,"Plant response rating, Lambsquarters",lambsquarters; [7],100
same,"Plant response rating, Blackgrass",blackgrass [2]; [8],90
same,"Plant response rating, Blackgrass",blackgrass [2]; [9],100
same,"Nutsedge, Yellow plant response rating",yellow nutsedge; [5],0
same,"Nutsedge, Yellow plant response rating",yellow nutsedge; [6],40
same,"Plant response rating, Nutsedge, Yellow",yellow nutsedge; [7],15
same,Oilseed Rape plant response rating,oilseed rape; [5],70
same,Oilseed Rape plant response rating,oilseed rape; [6],100
same,"Plant response rating, Oilseed Rape",oilseed rape; [7],100
same,Blackgrass plant response rating,blackgrass [3]; [5],0
same,Blackgrass plant response rating,blackgrass [3]; [6],95
same,"Plant response rating, Blackgrass",blackgrass [3]; [7],95
same,Barnyardgrass plant response rating,barnyardgrass; [5],5
same,Barnyardgrass plant response rating,barnyardgrass; [6],100
same,"Plant response rating, Barnyardgrass",barnyardgrass; [7],60
same,Soybean plant response rating,soybean; [5],40
same,Soybean plant response rating,soybean; [6],98
same,"Plant response rating, Soybean",soybean; [7],85
same,"Plant response rating, Ryegrass, Italian",Italian ryegrass [4]; [8],40
same,"Plant response rating, Ryegrass, Italian",Italian ryegrass [4]; [9],100
same,Pigweed plant response rating,pigweed; [5],5
same,Pigweed plant response rating,pigweed; [6],65
same,"Plant response rating, Pigweed",pigweed; [7],55
same,Velvetleaf plant response rating,velvetleaf; [5],25
same,Velvetleaf plant response rating,velvetleaf; [6],85
same,"Plant response rating, Velvetleaf",velvetleaf; [7],80
same,"Plant response rating, Galium",galium; [8],100
same,"Plant response rating, Galium",galium; [9],100
